Values of other authors in US20150164065A1, “ORGAN ARREST, PROTECTION, PRESERVATION AND RECOVERY” (priority 2002, published 2015).

Assays:
[1] = system: isolated brain slices
[2] = target: human NK(1) receptor (Homo sapiens, UniProt P25103)
[3] = target: T1, NK(2) receptor (Homo sapiens, UniProt P21452); conditions: relative to NK(1) receptor
T1 sequence (P21452 1-398): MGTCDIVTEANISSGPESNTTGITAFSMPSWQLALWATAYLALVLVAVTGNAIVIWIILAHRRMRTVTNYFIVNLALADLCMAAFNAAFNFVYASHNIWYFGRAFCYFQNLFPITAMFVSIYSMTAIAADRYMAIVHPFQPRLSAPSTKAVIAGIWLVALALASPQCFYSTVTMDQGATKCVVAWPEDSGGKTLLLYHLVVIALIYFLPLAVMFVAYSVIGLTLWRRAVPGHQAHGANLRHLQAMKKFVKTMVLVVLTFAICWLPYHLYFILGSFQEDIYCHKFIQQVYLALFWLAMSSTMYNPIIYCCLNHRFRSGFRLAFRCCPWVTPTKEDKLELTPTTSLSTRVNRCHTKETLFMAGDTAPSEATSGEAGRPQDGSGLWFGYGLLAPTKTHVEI

[4] = target: T2, NK(3) receptor (Homo sapiens, UniProt P29371); conditions: relative to NK(1) receptor
T2 sequence (P29371 1-465): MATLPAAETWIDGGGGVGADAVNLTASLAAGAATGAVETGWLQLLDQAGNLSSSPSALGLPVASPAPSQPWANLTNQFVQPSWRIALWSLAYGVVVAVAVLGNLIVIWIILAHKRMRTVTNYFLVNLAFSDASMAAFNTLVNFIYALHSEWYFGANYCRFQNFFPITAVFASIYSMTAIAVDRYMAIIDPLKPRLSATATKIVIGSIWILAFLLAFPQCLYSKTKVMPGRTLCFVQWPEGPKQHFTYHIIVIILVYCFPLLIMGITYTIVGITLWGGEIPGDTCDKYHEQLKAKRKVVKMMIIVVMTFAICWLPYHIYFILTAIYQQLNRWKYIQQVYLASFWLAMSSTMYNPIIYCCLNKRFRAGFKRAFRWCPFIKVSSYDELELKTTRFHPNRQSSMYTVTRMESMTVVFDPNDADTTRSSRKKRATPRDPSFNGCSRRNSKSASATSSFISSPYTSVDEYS

Sequence of human NK(1) receptor (P25103 whole entry): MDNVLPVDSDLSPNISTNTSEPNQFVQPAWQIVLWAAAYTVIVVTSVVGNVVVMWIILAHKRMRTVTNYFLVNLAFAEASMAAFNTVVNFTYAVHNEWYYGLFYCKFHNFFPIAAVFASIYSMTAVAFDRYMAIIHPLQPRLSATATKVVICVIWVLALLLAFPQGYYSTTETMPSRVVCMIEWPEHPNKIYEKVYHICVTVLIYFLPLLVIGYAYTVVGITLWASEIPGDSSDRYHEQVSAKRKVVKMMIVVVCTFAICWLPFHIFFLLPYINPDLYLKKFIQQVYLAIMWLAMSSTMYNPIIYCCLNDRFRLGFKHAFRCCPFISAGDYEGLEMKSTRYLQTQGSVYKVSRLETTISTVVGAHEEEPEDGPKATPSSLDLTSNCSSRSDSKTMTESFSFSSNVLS

SMILES	ischemia-induced cell swelling [1]	Ki [2] [nM]	selectivity toward NK(2) receptor [3]	selectivity toward NK(3) receptor [4]
CC1(C)CC(O)CC(C)(C)N1[O] [tempol(R)]	reduction of cell swelling			
CNC(=S)NC [dimethylthiourea]	reduction of cell swelling			
Cc1cccc(C)c1NC(=O)C[C@H]1CCN(C(=O)c2cc(C(F)(F)F)cc(C(F)(F)F)c2)[C@@H](Cc2ccccc2)C1.O=C(O)C[C@H](O)C(=O)O (relative stereo) [Example R116301, (2R-trans)-4-[1-[3,5-bis(trifluoromethyl)benzoyl]-2-(phenylmethyl)-4-piperidinyl]-N-(2,6-dimethylphenyl)-1-acetamide (S)-Hydroxybutanedioate]		0.45	over 200 fold	over 200 fold
Cc1c(C)c2c(c(C)c1O)CC[C@](C)(C(=O)O)O2 [Trolox(R)]	reduction of cell swelling			
